Paper PMC7221806, “PF74 and Its Novel Derivatives Stabilize Hexameric Lattice of HIV-1 Mature-Like Particles” (Molecules, 2020)

Experiments:
[1] = Cytotoxicity, resazurin assay; format: cell-based; settings: human, HEK 293T cells, 24 h treatment
HIV-1 CANC [2] = biological target: T1, HIV-1 CANC (Human immunodeficiency virus type 1 group M subtype B, UniProt P12493); assay: Disassembly inhibitor test for HIV (DITH), stability of preassembled CANC particles, with TEM; settings: 10 µM; for TEM of CANC particles after incubation in disassembly buffer: after DITH, negative staining; for relative stability of HIV-1 CANC assemblies in disassembly buffer: CANC without inhibitor in disassembly buffer = 0%
HIV-1 [3] = assay: microbe, parasite or virus in culture; format: cell-based; settings: for IC50: Human immunodeficiency virus 1, HEK293, 48 h
HIV-1 [4] = format: cell-based; settings: OMK cells, 10 µM, 2.5 µM CsA
[5] = Cytotoxic effect on OMK cells; format: cell-based; settings: owl monkey, OMK (owl monkey kidney) cells
HIV-1 CANC [6] = biological target: T1, HIV-1 CANC; assay: Fast Assembly Inhibitor Test for HIV (FAITH), in vitro assembly of mature-like particles, with TEM; settings: 10 µM; for TEM phenotype of CANC assembled in presence of inhibitor: after FAITH, negative staining

| Compound | CC50 at 24 h [1] | stabilization of HIV-1 CANC compared with PF74 (in words) (HIV-1 CANC [2]) | TEM of CANC particles after incubation in disassembly buffer (HIV-1 CANC [2]) | IC50 (HIV-1 [3]) | effect on HIV-1 infectivity / uncoating in CsA-washout assay (in words) (HIV-1 [4]) | inhibitory activity against HIV-1 compared with PF74 (in words) (HIV-1 [3]) | relative stability of HIV-1 CANC assemblies in disassembly buffer (HIV-1 CANC [2]) | CC50 [5] | TEM phenotype of CANC assembled in presence of inhibitor (HIV-1 CANC [6]) | effect on assembly of mature-like CANC particles (in words) (HIV-1 CANC [6]; CANC without inhibitor = 100%) |
| --- | --- | --- | --- | --- | --- | --- | --- | --- | --- | --- |
| COc1ccc2c(c1)c(CC(=O)N[C@@H](Cc1ccccc1)C(=O)N(C)c1ccccc1)c(C)n2C(=O)c1ccc(Cl)cc1 [D2, (S)-2-(2-(1-(4-chlorobenzoyl)-5-methoxy-2-methyl-1H-indol-3-yl)acetamido)-N-methyl--N,3-diphenylpropanamide] | > 40 µM | lower effect on HIV-1 CANC stability than PF74 | mainly disassembled material | 8 ± 1.2 µM | – | – | – | – | – | – |
| CN(C(=O)[C@H](Cc1ccccc1)NC(=O)[C@H]1Cc2ccccc2C(=O)N1C)c1ccccc1 [D8R, (R)-2-methyl-N-((S)-1-(methyl(phenyl)amino)-1-oxo-3-phenylpropan-2-yl)-1-oxo--1,2,3,4-tetrahydroisoquinoline-3-carboxamide] | > 40 µM | lower effect on HIV-1 CANC stability than PF74 | mainly disassembled material | 4.5 ± 1.5 µM | major effect | only slightly weaker than that of PF74 | – | – | – | – |
| CN(C(=O)[C@H](Cc1ccccc1)NC(=O)NCc1nc2ccccc2[nH]1)c1ccccc1 [D10, (S)-2-(3-((1H-benzo[d]imidazol-2-yl)methyl)ureido)-N-methyl-N,3-diphenylpropanamide] | 10 ± 1.6 µM | more potent stabilizers than PF74 | intact CANC particles | 0.5 ± 0.3 µM | – | better inhibitory activity against HIV-1 than PF74 | 90% | < 3 µM | predominant formation of cone-like and shorter tubular structures | – |
| CN(C(=O)[C@H](Cc1ccccc1)NC(=O)[C@@H]1Cc2ccccc2C(=O)N1)c1ccccc1 [D7, (S)-N-((S)-1-(methyl(phenyl)amino)-1-oxo-3-phenylpropan-2-yl)-1-oxo-1,2,3,4--tetrahydroisoquinoline-3-carboxamide] | > 40 µM | lower effect on HIV-1 CANC stability than PF74 | mainly disassembled material | > 20 µM | – | – | – | – | long, tubular structures | – |
| Cc1[nH]c2ccccc2c1CC(=O)N[C@@H](Cc1ccccc1)C(=O)N(C)c1ccccc1 [PF74] | > 40 µM | – | intact CANC particles | 1.75 ± 0.5 µM | strongest impact on HIV-1 infectivity in OMK cells at the early stage of HIV-1 infection | – | about 60% | – | predominant formation of cone-like and shorter tubular structures | no effect |
| CN(C(=O)[C@H](Cc1ccccc1)NC(=O)[C@@H]1Cc2ccccc2C(=O)N1C)c1ccccc1 [D8S, (S)-2-methyl-N-((S)-1-(methyl(phenyl)amino)-1-oxo-3-phenylpropan-2-yl)-1-oxo--1,2,3,4-tetrahydroisoquinoline-3-carboxamide] | > 40 µM | lower effect on HIV-1 CANC stability than PF74 | mainly disassembled material | > 20 µM | – | – | – | – | – | – |
| CC(C)Cc1ccc([C@@H](C)C(=O)N[C@@H](Cc2ccccc2)C(=O)N(C)c2ccccc2)cc1 [D4R, (S)-2-((R)-2-(4-isobutylphenyl)propanamido)-N-methyl-N,3-diphenylpropanamide] | 27 ± 3.5 µM | lower effect on HIV-1 CANC stability than PF74 | mainly disassembled material | > 20 µM | – | – | – | – | – | – |
| CN(C(=O)[C@H](Cc1ccccc1)NC(=O)Cc1n[nH]c2ccccc12)c1ccccc1 [D9, (S)-2-(2-(1H-indazol-3-yl)acetamido)-N-methyl-N,3-diphenylpropanamide] | > 40 µM | more potent stabilizers than PF74 | intact CANC particles | 3.4 ± 0.9 µM | highly active during the first two hours post infection, then its activity dropped | only slightly weaker than that of PF74 | 80% | – | – | – |
| CN(C(=O)[C@H](Cc1ccccc1)NC(=O)Cc1c[nH]c2ccccc12)c1ccccc1 [D1, (S)-2-(2-(1H-indol-3-yl)acetamido)-N-methyl-N,3-diphenylpropanamide] | > 40 µM | only slightly less active in stabilization than PF74 | – | 3.5 ± 0.6 µM | strongest impact on HIV-1 infectivity in OMK cells at the early stage of HIV-1 infection | only slightly weaker than that of PF74 | – | – | – | – |
